ChEMBL document CHEMBL1141012, “Cytotoxic bromotyrosine derivatives from a two-sponge association of Jaspis sp. and Poecillastra sp” (Bioorg Med Chem Lett, 2008)
Values after ≈ are worked out from the molar mass of the structure shown.

What was measured:
Assay type in all cases: functional, cell-based
XF498 = assay: Cytotoxicity against human XF498 cells
A549 = assay: Cytotoxicity against human A549 cells
HCT-15 = assay: Cytotoxicity against human HCT15 cells
SK-OV-3 = assay: Cytotoxicity against human SKOV3 cells
SK-MEL-2 = assay: Cytotoxicity against human SK-MEL-2 cells

COc1cccc2c1C(=O)c1c(O)c3c(c(O)c1C2=O)C[C@@](O)(C(=O)CO)C[C@@H]3O[C@H]1C[C@H](N)[C@H](O)[C@H](C)O1 [DOXORUBICIN]
EC50 (XF498): 0.03 µg/mL (≈ 0.0552 µM) | EC50 (A549): 0.01 µg/mL (≈ 0.0184 µM) | EC50 (HCT-15): 0.03 µg/mL (≈ 0.0552 µM) | EC50 (SK-OV-3): 0.01 µg/mL (≈ 0.0184 µM) | EC50 (SK-MEL-2): 0.01 µg/mL (≈ 0.0184 µM)

COC(=O)CCNC(=O)/C(Cc1ccc(O)c(Br)c1)=N/O [PSAMMAPLIN M]
EC50 (XF498): > 30 µg/mL | EC50 (A549): > 30 µg/mL | EC50 (HCT-15): > 30 µg/mL | EC50 (SK-OV-3): > 30 µg/mL | EC50 (SK-MEL-2): > 30 µg/mL

N#CSCCNC(=O)/C(Cc1ccc(O)c(Br)c1)=N/O [PSAMMAPLIN B]
EC50 (XF498): 10.9 µg/mL (≈ 30.5 µM) | EC50 (A549): 12.8 µg/mL (≈ 35.8 µM) | EC50 (HCT-15): > 30 µg/mL | EC50 (SK-OV-3): 9.27 µg/mL (≈ 25.9 µM) | EC50 (SK-MEL-2): 19.4 µg/mL (≈ 54.2 µM)

NC(=O)C(=O)NCCSSCCNC(=O)/C(Cc1ccc(O)c(Br)c1)=N/O [PSAMMAPLIN E]
EC50 (XF498): 1.63 µg/mL (≈ 3.4 µM) | EC50 (A549): 1.47 µg/mL (≈ 3.07 µM) | EC50 (HCT-15): 1.92 µg/mL (≈ 4.01 µM) | EC50 (SK-OV-3): 0.19 µg/mL (≈ 0.396 µM) | EC50 (SK-MEL-2): 0.21 µg/mL (≈ 0.438 µM)

CN(C)C(=N)N.CN(C)C(=N)N.O=C(NCCSSCCNC(=O)/C(Cc1ccc(OS(=O)(=O)O)c(Br)c1)=N/O)/C(Cc1ccc(OS(=O)(=O)O)c(Br)c1)=N/O [PSAMMAPLIN A SULFATE DIGUANIDIUM SALT]
EC50 (XF498): 16.9 µg/mL | EC50 (A549): 12.3 µg/mL | EC50 (HCT-15): 43.2 µg/mL | EC50 (SK-OV-3): 1.79 µg/mL | EC50 (SK-MEL-2): 4.48 µg/mL

O=C1NCCSSCCNC(=O)/C(=N/O)Cc2ccc(c(Br)c2)Oc2cc(cc(Br)c2O)C/C(=N\O)C(=O)NCCSSCCNC(=O)/C(=N/O)Cc2cc(Br)c(O)c(c2)Oc2ccc(cc2Br)C/C1=N\O [CYCLOBISPSAMMAPLIN A]
EC50 (XF498): 2.88 µg/mL (≈ 2.17 µM) | EC50 (A549): 1.95 µg/mL (≈ 1.47 µM) | EC50 (HCT-15): 3.82 µg/mL (≈ 2.88 µM) | EC50 (SK-OV-3): 1.21 µg/mL (≈ 0.913 µM) | EC50 (SK-MEL-2): 1.14 µg/mL (≈ 0.861 µM)

CS(=O)(=O)CCNC(=O)/C(Cc1ccc(O)c(Br)c1)=N/O [PSAMMAPLIN I]
EC50 (XF498): 2.96 µg/mL (≈ 7.81 µM) | EC50 (A549): 4.15 µg/mL (≈ 10.9 µM) | EC50 (HCT-15): 6.51 µg/mL (≈ 17.2 µM) | EC50 (SK-OV-3): 1.76 µg/mL (≈ 4.64 µM) | EC50 (SK-MEL-2): 2.84 µg/mL (≈ 7.49 µM)

O=C(NCCSSCCNC(=O)/C(Cc1ccc(O)c(Br)c1)=N/O)/C(Cc1ccc(OS(=O)(=O)[O-])c(Br)c1)=N\O.[Na+] [PSAMMAPLIN A SULFATE SODIUM SALT]
EC50 (XF498): 0.18 µg/mL | EC50 (A549): 0.18 µg/mL | EC50 (HCT-15): 1.25 µg/mL | EC50 (SK-OV-3): 0.16 µg/mL | EC50 (SK-MEL-2): 1.13 µg/mL
